{"source": "patent US7468376B2", "about": "“Pyrazolopyridine derivates” (Palau Pharma, S.A., priority 2003, dated 2008)", "data": [{"tested_on": "TNF-α release induced by LPS in human peripheral blood mononuclear cells", "experiment": "Test 2: Inhibition of TNF-α release induced by LPS in human peripheral blood mononuclear cells", "format": "cell-based", "details": "Homo sapiens, PBMC, test product at 0.1 μM, LPS 400 ng/mL, 19 h, TNF-α in supernatant by ELISA", "method": "(§1) Test 2: Inhibition of TNF-α Release Induced by LPS in Human Peripheral Blood Mononuclear Cells\n(§2) To obtain the mononuclear cells: heparinized venous blood, obtained from healthy volunteers, is diluted with an equal volume of saline phosphate buffer without calcium or magnesium. Aliquots of 30 mL of the mixture are transferred to 50 mL centrifuge tubes containing 15 mL of Ficoll-Hypaque (1.077 g/mL). The tubes are centrifuged at 1200×g for 20 min at room temperature without braking. Approximately two-thirds of the band of platelets lying above the mononuclear cells is removed with a pipette. The mononuclear cells are carefully transferred to a 50 mL tube, washed twice with saline phosphate buffer, centrifuged at 300×g for 10 min at room temperature and resuspended in RPMI supplemented with 1% inactivated fetal bovine serum at a cell density of 2×10^6 cells/mL.\n(§3) Inhibition of TNF-α release: 100 μL of mononuclear cells (2×10^6 cells/mL) are incubated on 96-well plates with 50 μL of the test product (final concentration, 0.001-10 μM) and 50 μL LPS (E. coli 055B5, Sigma) at a final concentration of 400 ng/mL for 19 h at 37° C. in an atmosphere with CO2 at 5%. The amount of TNF-α released in the supernatant is quantified using a commercial ELISA kit (Biosource International).", "units": {"inhibition at 0.1 µM": "%"}, "values": [{"compound": "CC(=O)NCCCn1cc2c(-c3ccc(F)cc3)c(-c3ccncc3)c(-c3ccc(F)cc3)nc2n1", "note": "[Example 240, N-[3-[4,6-Bis(4-fluorophenyl)-5-(4-pyridyl)pyrazolo[3,4-b]pyridin-2-yl]propyl]acetamide]", "inhibition at 0.1 µM": 58.4}, {"compound": "CCn1cc2c(-c3ccc(F)cc3)c(-c3ccncc3)c(-c3ccc(F)cc3)nc2n1", "note": "[Example 6, 2-Ethyl-4,6-bis(4-fluorophenyl)-5-(4-pyridyl)pyrazolo[3,4-b]pyridine]", "inhibition at 0.1 µM": 81.4}, {"compound": "Cn1cc2c(-c3ccc(F)cc3)c(-c3ccnc(Nc4ccc(S(N)(=O)=O)cc4)c3)c(-c3ccc(F)cc3)nc2n1", "note": "[Example 214, 4-[4-[4,6-Bis(4-fluorophenyl)-2-methylpyrazolo[3,4-b]pyridin-5-yl]pyridin-2-ylamino]benzenesulfonamide]", "inhibition at 0.1 µM": 71.1}, {"compound": "CNCCCn1cc2c(-c3ccc(F)cc3)c(-c3ccncc3)c(-c3ccc(F)cc3)nc2n1", "note": "[Example 78, N-Methyl-[3-[4,6-bis(4-fluorophenyl)-5-(4-pyridyl)pyrazolo[3,4-b]pyridin-2-yl]propyl]amine]", "inhibition at 0.1 µM": 73.3}, {"compound": "OCCNCCn1cc2c(-c3ccccc3)c(-c3ccncc3)c(-c3ccccc3)nc2n1", "note": "[Example 232, 2-[2-(4,6-Diphenyl-5-(4-pyridyl)pyrazolo[3,4-b]pyridin-2-yl)ethylamino]ethanol]", "inhibition at 0.1 µM": 67.9}, {"compound": "FC(F)(F)c1cccc(-c2nc3[nH]ncc3cc2-c2ccnc(NCC3CC3)n2)c1", "note": "[Example 208, N-Cyclopropylmethyl-[4-[6-[3-(trifluoromethyl)phenyl]-1H-pyrazolo[3,4-b]pyridin-5-yl]pyrimidin-2-yl]amine]", "inhibition at 0.1 µM": 67.7}, {"compound": "O=C(NCCn1cc2c(-c3ccc(F)cc3)c(-c3ccncc3)c(-c3ccc(F)cc3)nc2n1)C1CCNCC1", "note": "[Example 248, N-[2-[4,6-Bis(4-fluorophenyl)-5-(4-pyridyl)pyrazolo[3,4-b]pyridin-2-yl]ethyl]piperidine-4-carboxamide]", "inhibition at 0.1 µM": 53.2}, {"compound": "COCCOCCn1cc2c(-c3ccc(F)cc3)c(-c3ccncc3)c(-c3ccc(F)cc3)nc2n1", "note": "[Example 82, 4,6-Bis(4-fluorophenyl)-2-[2-(2-methoxyethoxy)ethyl]-5-(4-pyridyl)pyrazolo[3,4-b]pyridine]", "inhibition at 0.1 µM": 59.9}, {"compound": "CC(=O)Nc1n[nH]c2nc(-c3ccc(F)cc3)c(-c3ccnc(NCC4CC4)n3)cc12", "note": "[Example 268, N-[5-[2-[(Cyclopropylmethyl)amino]pyrimidin-4-yl]-6-(4-fluorophenyl)-1H-pyrazolo[3,4-b]pyridin-3-yl]acetamide]", "inhibition at 0.1 µM": 69.1}, {"compound": "Cc1n[nH]c2nc(-c3ccc(F)cc3)c(-c3ccncc3)c(-c3ccc(F)cc3)c12", "note": "[Example 4, 4,6-Bis(4-fluorophenyl)-3-methyl-5-(4-pyridyl)-1H-pyrazolo[3,4-b]pyridine]", "inhibition at 0.1 µM": 68.4}, {"compound": "Fc1ccc(-c2nc3[nH]nc(Cl)c3c(-c3ccc(F)cc3)c2-c2ccncc2)cc1", "note": "[Example 63, 3-Chloro-4,6-bis(4-fluorophenyl)-5-(4-pyridyl)-1H-pyrazolo[3,4-b]pyridine]", "inhibition at 0.1 µM": 53.2}, {"compound": "Fc1ccc(-c2nc3nn(C4CCNCC4)cc3c(-c3ccc(F)cc3)c2-c2ccncc2)cc1", "note": "[Example 36, 4,6-Bis(4-fluorophenyl)-2-(4-piperidyl)-5-(4-pyridyl)pyrazolo[3,4-b]pyridine]", "inhibition at 0.1 µM": 92}, {"compound": "C[C@H](Nc1nccc(-c2cc3cn(CCCO)nc3nc2-c2cccc(C(F)(F)F)c2)n1)c1ccccc1", "note": "[Example 209, (1S)-3-[5-[2-(1-Phenylethylamino)-pyrimidin-4-yl]-6-(3-trifluoromethylphenyl)pyrazolo[3,4-b]pyridin-2-yl]propan-1-ol]", "inhibition at 0.1 µM": 84.2}, {"compound": "FC(F)(F)c1cccc(-c2nc3[nH]ncc3cc2-c2ccnc(NCc3ccccc3)n2)c1", "note": "[Example 290, N-Benzyl-[4-[6-(3-trifluoromethyl-phenyl)-1H-pyrazolo[3,4-b]pyridin-5-yl]pyrimidin-2-yl]amine]", "inhibition at 0.1 µM": 65.8}, {"compound": "Fc1ccc(-c2nc3nn(Cc4cccnc4)cc3c(-c3ccc(F)cc3)c2-c2ccncc2)cc1", "note": "[Example 102, 4,6-Bis(4-fluorophenyl)-5-(4pyridyl)-2-(3-pyridylmethyl)pyrazolo[3,4-b]pyridine]", "inhibition at 0.1 µM": 67.9}, {"compound": "Fc1ccc(-c2nc3[nH]ncc3c(-c3ccc(F)cc3)c2-c2ccncc2)cc1", "note": "[Example 1, 4,6-Bis(4-fluorophenyl)-5-(4-pyridyl)-1H-pyrazolo[3,4-b]pyridine]", "inhibition at 0.1 µM": 57.5}, {"compound": "Fc1ccc(-c2nc3[nH]ncc3c(-c3cc[nH]n3)c2-c2ccncc2)cc1", "note": "[Example 217, 6-(4-Fluorophenyl)-4-(1H-pyrazol-3-yl)-5-(4-pyridyl)-1H-pyrazolo[3,4-b]pyridine]", "inhibition at 0.1 µM": 53.8}, {"compound": "O=C(CNCCO)NCCn1cc2c(-c3ccc(F)cc3)c(-c3ccncc3)c(-c3ccc(F)cc3)nc2n1", "note": "[Example 250, N-[2-[4,6-Bis(4-fluorophenyl)-5-(4-pyridyl)pyrazolo[3,4-b]pyridin-2-yl]ethyl]-2-(2-hydroxyethylamino)acetamide]", "inhibition at 0.1 µM": 67}, {"compound": "CC(=O)N1CCN(CCn2cc3c(-c4ccc(F)cc4)c(-c4ccncc4)c(-c4ccc(F)cc4)nc3n2)CC1", "note": "[Example 136, 1-[4-[2-[4,6-Bis(4-fluorophenyl)-5-(4-pyridyl)pyrazolo[3,4-b]pyridin-2-yl]ethyl]piperazin-1-yl]ethanone]", "inhibition at 0.1 µM": 67}, {"compound": "OCCCn1cc2c(-c3ccccc3)c(-c3ccncc3)c(-c3ccccc3)nc2n1", "note": "[Example 137, 3-[4,6-Diphenyl-5-(4-pyridyl)pyrazolo[3,4-b]pyridin-2-yl]propan-1-ol]", "inhibition at 0.1 µM": 61.4}, {"compound": "OCCCNc1nccc(-c2cc3cn[nH]c3nc2-c2cccc(C(F)(F)F)c2)n1", "note": "[Example 287, 3-[4-[6-(3-Trifluoromethylphenyl)-1H-pyrazolo[3,4-b]pyridin-5-yl]pyrimidin-2-ylamino]propan-1-ol]", "inhibition at 0.1 µM": 71.2}, {"compound": "Cc1n[nH]c2nc(-c3ccc(F)cc3)c(-c3ccnc(N[C@@H](C)c4ccccc4)n3)cc12", "note": "[Example 279, (1S)-N-(1-Phenylethyl)-[4-[6-(4-fluorophenyl)-3-methyl-1H-pyrazolo[3,4-b]pyridin-5-yl]pyrimidin-2-yl]amine]", "inhibition at 0.1 µM": 100}]}, {"tested_on": "TNF-α release induced by LPS in human peripheral blood mononuclear cells", "experiment": "Test 2: Inhibition of TNF-α release induced by LPS in human peripheral blood mononuclear cells", "format": "cell-based", "details": "test product at 0.1 μM, LPS 400 ng/mL, 19 h, TNF-α in supernatant by ELISA", "method": "as §1, §2, §3", "units": {"% Inhibition at 0.1 μM": "%"}, "values": [{"compound": "Cc1c2c(-c3ccc(F)cc3)c(-c3ccncc3)c(-c3ccc(F)cc3)nc2nn1C1CCNCC1", "note": "[Example 41, 4,6-Bis(4-fluorophenl)-3-methyl-2-(4-piperidyl)-5-(4-pyridyl)pyrazolo[3,4-b]pyridine]", "% Inhibition at 0.1 μM": 90.6}, {"compound": "6-(4-Fluorophenyl)-4-methyl-5-(2-methylsulfanylpyrimidin-4-yl)-1H-pyrazolo[3,4-b]pyridine [Example 237]", "% Inhibition at 0.1 μM": 53.4}, {"compound": "OCCCn1cc2c(-c3ccc(F)cc3)c(-c3ccncc3)c(-c3ccc(F)cc3)nc2n1", "note": "[Example 18, 3-[4,6-Bis(4-fluorophenyl)-5-(4-pyridyl)pyrazolo[3,4-b]pirridin-2-yl]propan-1-ol]", "% Inhibition at 0.1 μM": 82.6}, {"compound": "c1ccc(-c2nc3[nH]ncc3cc2-c2ccnc(NCC3CC3)n2)cc1", "note": "[Example 282, N-Cyclopropylmethyl-4-[6-[phenyl-1H-pyrazolo[3,4-b]pyridin-5-yl]pyrimidin-2-yl]amine]", "% Inhibition at 0.1 μM": 65.2}, {"compound": "Cn1cc2c(-c3ccc(Br)s3)c(-c3ccncc3)c(-c3ccc(F)cc3)nc2n1", "note": "[Example 188, 4-(5-Bromothien-2-yl)-6-(4-fluoro-phenyl)-2-methyl-5-(4-pyridyl)-1H-pyrazolo[3,4-b]pyridine]", "% Inhibition at 0.1 μM": 73.2}]}]}
